The results in this text go back to US20260217683A1, “PYRIDAZINONE HETEROCYCLIC COMPOUND MYOSIN II INHIBITOR AND USE THEREOF” (Xizang Haisco Pharmaceutical Co., Ltd., priority 2023, published 2026).

For assay [1], the target named is T1, hERG potassium ion channel (Homo sapiens, UniProt Q12809).
T1 construct: expressed in transfected cells
The assay is described as follows: Effect on hERG potassium ion channel (manual patch-clamp, CHO cells). It counts as cell-based. The conditions noted are these: CHO cells stably expressing hERG, whole cell patch-clamp; read-out: IC50 of the inhibitory effect on hERG potassium channel current. The source says:
1. Experimental platform: electrophysiological manual patch-clamp system
2. Cell line: Chinese hamster ovary (CH—O) cell lines stably expressing hERG potassium ion channel
3. Experimental method: in CHO (Chinese Hamster Ovary) cells stably expressing hERG potassium channel, whole cell patch-clamp technique was used to record hERG potassium channel current at room temperature. The glass microelectrode was made of a glass electrode blank (BF150-86-10, Sutter) by a puller. The tip resistance after filling the liquid in the electrode was about 2-5 MQ. The glass microelectrode can be connected to the patch-clamp amplifier by inserting the glass microelectrode into an amplifier probe. The clamping voltage and data recording were controlled and recorded by the pClamp 10 software through a computer. The sampling frequency was 10 kHz, and the filtering frequency was 2 kHz. After the whole cell records were obtained, the cells were clamped at −80 mV, and the step voltage that induced the hERG potassium current (IhERG) was depolarized from −80 mV to +20 mV for 2 s, then repolarized to −50 mV, and returned to −80 mV after 1 s. This voltage stimulation was given every 10 s, and the administration process was started after the hERG potassium current was confirmed to be stable (at least 1 minute). The compound was administered for at least 1 minute at each test concentration, and at least 2 cells (n≥2) were tested at each concentration.
4. Data processing: Data analysis processing was carried out by using pClamp 10, GraphPad Prism 5 and Excel software. The inhibition degree of hERG potassium current (peak value of hERG tail current induced at −50 mV) at different compound concentrations was calculated by the following formula:
[formula] • where Inhibition % represents the percentage of inhibition of hERG potassium current by the compound, and I and Io represent the amplitude of hERG potassium current after and before the administration, respectively.
Compound IC50 was calculated using GraphPad Prism 5 software by fitting according to the following equation: […]
Among the equation, X represents the Log value of the tested concentration of the test sample, Y represents the inhibition percentage at the corresponding concentration, and Bottom and Top represent the minimum and maximum inhibition percentage, respectively.

The target in another assay is T2, cardiac myosin SII (Bos taurus, UniProt Q9BE39).
T2 construct: purchased Cytoskeleton #MYO3-A
T2 sequence (Q9BE39 whole entry): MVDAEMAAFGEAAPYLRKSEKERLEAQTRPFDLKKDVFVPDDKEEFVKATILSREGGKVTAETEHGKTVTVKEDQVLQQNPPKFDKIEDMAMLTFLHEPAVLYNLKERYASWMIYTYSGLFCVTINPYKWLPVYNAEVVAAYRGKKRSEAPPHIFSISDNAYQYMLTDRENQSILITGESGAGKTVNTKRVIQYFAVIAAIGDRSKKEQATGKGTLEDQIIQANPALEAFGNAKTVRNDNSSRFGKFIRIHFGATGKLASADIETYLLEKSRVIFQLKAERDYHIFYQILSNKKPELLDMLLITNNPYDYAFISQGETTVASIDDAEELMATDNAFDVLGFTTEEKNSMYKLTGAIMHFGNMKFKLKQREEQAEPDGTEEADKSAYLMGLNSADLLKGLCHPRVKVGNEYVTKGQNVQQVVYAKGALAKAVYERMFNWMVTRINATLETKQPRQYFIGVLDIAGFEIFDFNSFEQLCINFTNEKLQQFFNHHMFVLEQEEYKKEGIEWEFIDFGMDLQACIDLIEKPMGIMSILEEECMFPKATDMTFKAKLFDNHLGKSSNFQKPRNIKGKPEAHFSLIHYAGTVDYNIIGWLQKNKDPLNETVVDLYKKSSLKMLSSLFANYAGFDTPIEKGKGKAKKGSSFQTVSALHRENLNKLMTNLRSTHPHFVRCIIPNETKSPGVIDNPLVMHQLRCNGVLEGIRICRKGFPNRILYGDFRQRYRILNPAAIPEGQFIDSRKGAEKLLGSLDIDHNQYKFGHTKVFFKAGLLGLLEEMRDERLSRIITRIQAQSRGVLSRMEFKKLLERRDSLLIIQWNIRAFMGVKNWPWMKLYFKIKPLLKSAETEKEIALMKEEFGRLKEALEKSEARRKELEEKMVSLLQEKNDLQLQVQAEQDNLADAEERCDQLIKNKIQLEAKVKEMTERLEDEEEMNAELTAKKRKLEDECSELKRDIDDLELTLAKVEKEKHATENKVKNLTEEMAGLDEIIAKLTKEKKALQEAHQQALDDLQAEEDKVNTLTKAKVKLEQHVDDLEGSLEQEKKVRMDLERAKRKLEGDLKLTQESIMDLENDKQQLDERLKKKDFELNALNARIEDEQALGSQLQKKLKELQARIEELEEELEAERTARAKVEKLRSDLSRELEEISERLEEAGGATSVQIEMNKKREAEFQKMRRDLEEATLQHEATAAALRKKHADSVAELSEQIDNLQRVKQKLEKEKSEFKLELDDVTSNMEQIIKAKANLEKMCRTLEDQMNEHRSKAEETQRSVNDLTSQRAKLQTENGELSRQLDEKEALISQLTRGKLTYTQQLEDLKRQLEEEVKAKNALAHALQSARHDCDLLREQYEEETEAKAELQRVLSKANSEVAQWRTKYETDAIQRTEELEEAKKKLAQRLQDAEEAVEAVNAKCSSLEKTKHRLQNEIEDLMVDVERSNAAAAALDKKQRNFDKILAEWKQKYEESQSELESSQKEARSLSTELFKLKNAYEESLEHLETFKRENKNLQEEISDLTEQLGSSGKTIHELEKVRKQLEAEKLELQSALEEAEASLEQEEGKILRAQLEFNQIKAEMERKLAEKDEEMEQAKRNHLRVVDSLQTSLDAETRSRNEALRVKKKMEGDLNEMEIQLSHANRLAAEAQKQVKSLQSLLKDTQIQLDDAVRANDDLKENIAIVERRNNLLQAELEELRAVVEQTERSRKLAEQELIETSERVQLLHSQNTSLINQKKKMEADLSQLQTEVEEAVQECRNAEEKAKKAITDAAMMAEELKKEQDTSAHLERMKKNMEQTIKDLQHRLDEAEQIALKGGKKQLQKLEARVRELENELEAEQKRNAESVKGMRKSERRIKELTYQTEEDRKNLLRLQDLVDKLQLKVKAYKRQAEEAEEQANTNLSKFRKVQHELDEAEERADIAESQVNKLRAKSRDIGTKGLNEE
T2 sequence (P85100 whole entry partner): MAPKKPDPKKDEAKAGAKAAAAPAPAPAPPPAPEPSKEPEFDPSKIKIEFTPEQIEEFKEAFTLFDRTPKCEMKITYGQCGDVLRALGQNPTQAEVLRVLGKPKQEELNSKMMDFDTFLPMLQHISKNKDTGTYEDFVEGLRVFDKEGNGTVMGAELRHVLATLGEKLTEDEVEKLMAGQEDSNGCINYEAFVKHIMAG
T2 sequence (Q3SZE5 whole entry partner): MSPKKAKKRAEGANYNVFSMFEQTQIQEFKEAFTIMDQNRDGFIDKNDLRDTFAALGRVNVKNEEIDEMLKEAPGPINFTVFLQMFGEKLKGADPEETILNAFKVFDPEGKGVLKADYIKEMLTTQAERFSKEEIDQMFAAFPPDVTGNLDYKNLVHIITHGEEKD
The assay is described as follows: Inhibition of hydrolysis of ATP by cardiac myosin SII. It counts as biochemical. The conditions noted are these: 100 μM compound. The procedure, abridged: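 Bovine cardiac myosin with preformed F-actin in 15 mM Tris-HCl pH 7.5, 10 mM KCl, 2 mM MgCl2, 0.1 mM EGTA; compounds at 100 μM final, ATP from 3 mM working solution, 2 h at 37 °C. Released Pi measured colorimetrically at 650 nm against a Pi standard curve; % inhibition vs. DMSO control.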

Another assay concerns the target T3, CYP2C19 (Homo sapiens, UniProt P33261).
T3 construct: incubated with human liver microsomes and test compounds of different concentrations; from tissue; host or cells: human liver microsomes
As to the kind of experiment: CYP450 enzyme inhibition, human liver microsomes, CYP2C19. Format: in vitro ADME. The procedure, abridged: (§1)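 Human liver microsomes were incubated with isoform-specific probe substrates and a range of test compound concentrations, with the reaction started by NADPH. Probe metabolites were quantified by LC-MS/MS to derive enzyme activity, and IC50 values were calculated per isoform.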
A general note: Liver microsomes are vesicles of endoplasmic reticulum, rich in cytochrome P450 enzymes.

Another assay concerns the target T4, CYP1A2 (Homo sapiens, UniProt P05177).
T4 construct: incubated with human liver microsomes and test compounds of different concentrations; from tissue; host or cells: human liver microsomes
T4 sequence (P05177 1-516): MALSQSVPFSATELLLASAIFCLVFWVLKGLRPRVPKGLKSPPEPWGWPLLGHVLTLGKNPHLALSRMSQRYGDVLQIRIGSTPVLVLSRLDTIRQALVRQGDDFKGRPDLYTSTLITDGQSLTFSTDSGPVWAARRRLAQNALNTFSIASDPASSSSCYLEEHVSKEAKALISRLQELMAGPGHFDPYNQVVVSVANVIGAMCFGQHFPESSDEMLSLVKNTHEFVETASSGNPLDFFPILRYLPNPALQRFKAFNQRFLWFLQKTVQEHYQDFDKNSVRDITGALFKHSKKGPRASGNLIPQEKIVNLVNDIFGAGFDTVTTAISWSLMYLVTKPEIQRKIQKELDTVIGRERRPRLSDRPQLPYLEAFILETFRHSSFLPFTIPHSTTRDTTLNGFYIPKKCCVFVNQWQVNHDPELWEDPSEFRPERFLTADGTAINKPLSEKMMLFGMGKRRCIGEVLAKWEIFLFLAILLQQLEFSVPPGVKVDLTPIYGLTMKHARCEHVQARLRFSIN
As to the kind of experiment: CYP450 enzyme inhibition, human liver microsomes, CYP1A2. Format: in vitro ADME. A digest of the protocol:
as §1

pIC50: −log10 of the molar value.

T1 sequence (Q12809 whole entry): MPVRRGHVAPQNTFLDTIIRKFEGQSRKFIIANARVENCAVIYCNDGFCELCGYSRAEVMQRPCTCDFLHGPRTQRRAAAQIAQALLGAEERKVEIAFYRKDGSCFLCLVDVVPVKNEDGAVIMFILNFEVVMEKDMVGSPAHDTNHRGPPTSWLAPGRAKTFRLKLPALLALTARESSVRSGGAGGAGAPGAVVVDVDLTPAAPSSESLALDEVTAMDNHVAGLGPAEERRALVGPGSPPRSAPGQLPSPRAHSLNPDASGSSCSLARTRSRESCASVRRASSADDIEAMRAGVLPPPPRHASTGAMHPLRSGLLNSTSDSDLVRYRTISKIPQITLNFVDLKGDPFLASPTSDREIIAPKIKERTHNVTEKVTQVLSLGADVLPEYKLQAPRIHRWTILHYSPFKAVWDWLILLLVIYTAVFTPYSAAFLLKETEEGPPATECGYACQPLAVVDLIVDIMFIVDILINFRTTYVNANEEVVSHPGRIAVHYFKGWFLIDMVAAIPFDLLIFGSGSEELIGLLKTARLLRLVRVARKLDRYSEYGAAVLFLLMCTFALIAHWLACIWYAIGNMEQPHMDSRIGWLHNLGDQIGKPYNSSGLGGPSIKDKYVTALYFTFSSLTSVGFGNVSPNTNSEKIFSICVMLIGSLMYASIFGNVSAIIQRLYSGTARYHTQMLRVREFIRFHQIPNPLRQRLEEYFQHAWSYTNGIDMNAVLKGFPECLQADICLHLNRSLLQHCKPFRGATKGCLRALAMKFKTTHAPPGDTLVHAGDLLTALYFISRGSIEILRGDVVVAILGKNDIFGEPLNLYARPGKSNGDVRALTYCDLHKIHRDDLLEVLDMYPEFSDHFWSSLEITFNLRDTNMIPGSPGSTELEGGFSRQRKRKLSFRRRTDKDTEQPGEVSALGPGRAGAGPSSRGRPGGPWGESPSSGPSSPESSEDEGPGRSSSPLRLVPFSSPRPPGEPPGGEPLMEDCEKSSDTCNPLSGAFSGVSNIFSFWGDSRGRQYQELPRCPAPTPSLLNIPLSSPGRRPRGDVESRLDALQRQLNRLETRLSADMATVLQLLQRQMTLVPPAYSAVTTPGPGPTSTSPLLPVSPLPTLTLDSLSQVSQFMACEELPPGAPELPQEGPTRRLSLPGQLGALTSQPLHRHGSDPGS
T3 sequence (P33261 whole entry): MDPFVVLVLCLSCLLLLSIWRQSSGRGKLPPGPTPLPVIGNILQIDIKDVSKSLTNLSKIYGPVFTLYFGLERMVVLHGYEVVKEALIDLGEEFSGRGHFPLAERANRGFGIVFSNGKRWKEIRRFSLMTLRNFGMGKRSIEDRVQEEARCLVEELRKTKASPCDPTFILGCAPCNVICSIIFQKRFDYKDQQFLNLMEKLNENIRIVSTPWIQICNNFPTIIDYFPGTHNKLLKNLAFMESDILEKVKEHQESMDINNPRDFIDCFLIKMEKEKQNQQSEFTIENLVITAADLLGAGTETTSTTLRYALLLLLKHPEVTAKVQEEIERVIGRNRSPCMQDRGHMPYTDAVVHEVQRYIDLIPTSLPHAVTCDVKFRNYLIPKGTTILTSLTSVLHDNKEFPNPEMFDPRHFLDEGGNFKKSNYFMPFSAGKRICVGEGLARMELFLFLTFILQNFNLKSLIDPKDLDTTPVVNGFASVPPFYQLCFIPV

For orientation: pIC50 means the IC50 on a negative log10 scale, so that one unit is a factor of ten. The term inhibition denotes the drop in the measured response relative to a control, in per cent. By IC50 is commonly meant the concentration that inhibits the measured activity by half. A low value points to higher potency. Take `O=C1CCc2ccc(Cn3nc(-c4cnc(OC5COCC5(F)F)nc4)ccc3=O)cc21` (stereo not shown) [Compound 164]: in assay [1], the negative-log IC50 (pIC50) is under 4.40. At cardiac myosin SII, the inhibition at 100 µM was 4%. The IC50 against CYP2C19 and on CYP1A2 was over 30 µM throughout.

For the molecule `O=C1CCc2ccc(Cn3nc(-c4cnc(O[C@@H]5CCOC5)nc4)ccc3=O)cc21` [Compound 149], on cardiac myosin SII, the inhibition at 100 µM came out at 10%. The concentration for half-maximal inhibition (IC50) on CYP2C19 and against CYP1A2 was over 30 µM in each case.

For `O=C1CCc2ccc(Cn3nc(-c4cnc(OC5CC(F)(F)C5)nc4)ccc3=O)cc21` [Compound 141], at cardiac myosin SII, the inhibition at 100 µM worked out at 14%. Also, the IC50 against CYP2C19 and on CYP1A2 was over 30 µM throughout.

As to `O=C1CCc2c(F)cc(Cn3nc(-c4cnc(OCC(F)F)nc4)ccc3=O)cc21` [Compound 167], on cardiac myosin SII, the inhibition at 100 µM came out at 4%. The IC50 against CYP2C19 and on CYP1A2 was over 30 µM each time.

Regarding `O=C1CCc2ccc(Cn3nc(-c4cnc(Oc5cncc(Cl)c5)nc4)ccc3=O)cc21` [Compound 151], the inhibition at 100 µM against cardiac myosin SII is -2%. For the same molecule, the IC50 at CYP2C19 and against CYP1A2 was over 30 µM in each case.

On to `O=C1CCc2ccc(Cn3nc(-c4cnc(OCC(F)F)nc4)ccc3=O)cc21` [Compound 131], for which the IC50 against CYP2C19 and at CYP1A2 was over 30 µM in each case.

Turning to `O=c1ccc(-c2cnc(OCC(F)(F)F)nc2)nn1Cc1ccc2c(c1)CCC2` [Compound 57], the pIC50 in assay [1] is under 4.40. The inhibition at 100 µM against cardiac myosin SII stood at 1.5%.

Take `O=C1CCc2ccc(Cn3nc(-c4cnc(OCC(F)(F)F)nc4)ccc3=O)cc21` [Compound 88]: the IC50 against CYP2C19 and on CYP1A2 was over 30 µM throughout.

As to `N#CC1(COc2ncc(-c3ccc(=O)n(Cc4ccc5c(c4)C(=O)CC5)n3)cn2)CC1` [Compound 158], the pIC50 in assay [1] was under 4.40. In addition, the inhibition at 100 µM against cardiac myosin SII worked out at 10%. In addition, the half-maximal inhibitory concentration (IC50) at CYP2C19 and at CYP1A2 was over 30 µM each time.

Consider `O=C1CCc2c(F)cc(Cn3nc(-c4cnc(O[C@H]5CCOC5)nc4)ccc3=O)cc21` [Compound 165], for which the negative logarithm of the IC50 (pIC50) in assay [1] was under 4.40. For the same molecule, the IC50 on CYP2C19 and at CYP1A2 was over 30 µM in each case.

For the molecule `O=C1CCc2ccc(Cn3nc(-c4cnc(O[C@H]5CCOC5)nc4)ccc3=O)cc21` [Compound 150], in assay [1], the negative logarithm of the IC50 (pIC50) was under 4.40. Also, at cardiac myosin SII, the inhibition at 100 µM is 15%.
